{"source": "paper PMC5218480", "about": "(PLoS ONE, 2017)", "system": "MV-4-11 cells", "test": "Gene expression microarray analysis (Affymetrix PrimeView) and GSEA", "type": "cell-based, human", "parameters": "RFU PODN (11730768_x_at) / Fold change /veh PODN (11730768_x_at) / RFU LINC00158 (11744669_a_at) / Fold change /veh LINC00158 (11744669_a_at) / RFU DUSP10 (11751237_a_at) / Fold change /veh DUSP10 (11751237_a_at) / RFU ID3 (11757404_x_at) / Fold change /veh ID3 (11757404_x_at) / RFU PLEKHG5 (11737974_s_at) / Fold change /veh PLEKHG5 (11737974_s_at) / RFU LRRC4B (11730491_at) / Fold change /veh LRRC4B (11730491_at) / RFU GIMAP4 (11747438_a_at) / Fold change /veh GIMAP4 (11747438_a_at) / RFU KRT8 (11758183_x_at) / Fold change /veh KRT8 (11758183_x_at) / RFU CNN1 (11734310_a_at) / Fold change /veh CNN1 (11734310_a_at) / RFU VPS37D (11726825_at) / Fold change /veh VPS37D (11726825_at) / RFU C10orf10 (11716522_x_at) / Fold change /veh C10orf10 (11716522_x_at) / RFU KIR2DL2 /// KIR2DL4 /// KIR2DL5A /// KIR2DL5B /// KIR2DS1 /// KIR2DS2 /// KIR2DS3 /// KIR2DS4 /// KIR3DL3 /// KIR3DL3 /// KIR3DS1 (11738374_at) / Fold change /veh KIR2DL2 /// KIR2DL4 /// KIR2DL5A /// KIR2DL5B /// KIR2DS1 /// KIR2DS2 /// KIR2DS3 /// KIR2DS4 /// KIR3DL3 /// KIR3DL3 /// KIR3DS1 (11738374_at) / RFU C1QL1 (11718748_at) / Fold change /veh C1QL1 (11718748_at) / RFU TMPRSS4 (11747572_a_at) / Fold change /veh TMPRSS4 (11747572_a_at) / RFU HAMP (11756126_x_at) / Fold change /veh HAMP (11756126_x_at) / RFU RNFT2 (11725882_a_at) / Fold change /veh RNFT2 (11725882_a_at) / RFU NR4A2 (11747474_a_at) / Fold change /veh NR4A2 (11747474_a_at) / RFU ABCC12 (11746883_a_at) / Fold change /veh ABCC12 (11746883_a_at) / RFU TMEM136 (11760407_x_at) / Fold change /veh TMEM136 (11760407_x_at) / RFU CLDN22 /// WWC2 (11732394_at) / Fold change /veh CLDN22 /// WWC2 (11732394_at) / RFU HLA-DPB1 (11760878_x_at) / Fold change /veh HLA-DPB1 (11760878_x_at) / RFU SPINT1 (11716480_a_at) / Fold change /veh SPINT1 (11716480_a_at) / RFU GAP43 (11754022_s_at) / Fold change /veh GAP43 (11754022_s_at) / RFU A4GNT (11735810_at) / Fold change /veh A4GNT (11735810_at) / RFU PRB3 (11715151_x_at) / Fold change /veh PRB3 (11715151_x_at) / RFU TUBB4B (11761932_at) / Fold change /veh TUBB4B (11761932_at) / RFU CAPN14 (11732068_a_at) / Fold change /veh CAPN14 (11732068_a_at) / RFU TMCC2 (11721928_a_at) / Fold change /veh TMCC2 (11721928_a_at) / RFU IRGQ (11745062_a_at) / Fold change /veh IRGQ (11745062_a_at) / RFU FAM174B (11720279_a_at) / Fold change /veh FAM174B (11720279_a_at) / RFU TMPRSS4 (11748680_a_at) / Fold change /veh TMPRSS4 (11748680_a_at) / RFU FAM212B (11763350_a_at) / Fold change /veh FAM212B (11763350_a_at) / RFU PLEKHG5 (11743358_a_at) / Fold change /veh PLEKHG5 (11743358_a_at) / RFU ZSCAN30 (11745921_a_at) / Fold change /veh ZSCAN30 (11745921_a_at) / RFU CMKLR1 (11741424_a_at) / Fold change /veh CMKLR1 (11741424_a_at) / RFU LOC101060620 /// MAPK8IP1 (11723275_at) / Fold change /veh LOC101060620 /// MAPK8IP1 (11723275_at) / RFU SPTSSB (11747773_x_at) / Fold change /veh SPTSSB (11747773_x_at) / RFU PRSS12 (11739890_at) / Fold change /veh PRSS12 (11739890_at) / RFU BIN1 (11741810_x_at) / Fold change /veh BIN1 (11741810_x_at) / RFU WNT11 (11732464_a_at) / Fold change /veh WNT11 (11732464_a_at) / RFU C10orf10 (11716521_a_at) / Fold change /veh C10orf10 (11716521_a_at) / RFU C5orf56 (11738089_at) / Fold change /veh C5orf56 (11738089_at) / RFU CYB561 (11721691_x_at) / Fold change /veh CYB561 (11721691_x_at) / RFU ANKRD19P (11752326_a_at) / Fold change /veh ANKRD19P (11752326_a_at) / RFU OR2T12 /// OR2T33 /// OR2T8 (11738714_s_at) / Fold change /veh OR2T12 /// OR2T33 /// OR2T8 (11738714_s_at) / RFU VCAN (11748164_a_at) / Fold change /veh VCAN (11748164_a_at) / RFU JSRP1 (11732532_at) / Fold change /veh JSRP1 (11732532_at) / RFU KRTAP10-11 (11738290_x_at) / Fold change /veh KRTAP10-11 (11738290_x_at) / RFU MYO3A (11730013_a_at) / Fold change /veh MYO3A (11730013_a_at) / RFU EBF3 (11725865_a_at) / Fold change /veh EBF3 (11725865_a_at) / RFU CAMK2N1 (11719241_x_at) / Fold change /veh CAMK2N1 (11719241_x_at) / RFU C5orf56 (11738088_a_at) / Fold change /veh C5orf56 (11738088_a_at) / RFU OLFML3 (11715873_a_at) / Fold change /veh OLFML3 (11715873_a_at) / RFU LOC100653217 /// NTM (11731650_a_at) / Fold change /veh LOC100653217 /// NTM (11731650_a_at) / RFU MAPK11 (11762145_a_at) / Fold change /veh MAPK11 (11762145_a_at) / RFU FIZ1 (11724087_x_at) / Fold change /veh FIZ1 (11724087_x_at) / RFU OASL (11726364_x_at) / Fold change /veh OASL (11726364_x_at) / RFU SOX15 (11748057_x_at) / Fold change /veh SOX15 (11748057_x_at) / RFU CD79A (11719716_a_at) / Fold change /veh CD79A (11719716_a_at) / RFU HIST1H1D (11736915_at) / Fold change /veh HIST1H1D (11736915_at) / RFU CASKIN2 (11723855_a_at) / Fold change /veh CASKIN2 (11723855_a_at) / RFU LOC730098 (11760151_x_at) / Fold change /veh LOC730098 (11760151_x_at) / RFU OR4N2 (11742367_at) / Fold change /veh OR4N2 (11742367_at) / RFU PRRT2 (11749266_a_at) / Fold change /veh PRRT2 (11749266_a_at) / RFU SNX32 (11753110_a_at) / Fold change /veh SNX32 (11753110_a_at) / RFU CDHR5 (11726645_a_at) / Fold change /veh CDHR5 (11726645_a_at) / RFU RCAN1 (11760418_a_at) / Fold change /veh RCAN1 (11760418_a_at) / RFU FAM167A (11723789_a_at) / Fold change /veh FAM167A (11723789_a_at) / RFU FAM26E (11764081_at) / Fold change /veh FAM26E (11764081_at) / RFU ISYNA1 (11749810_s_at) / Fold change /veh ISYNA1 (11749810_s_at) / RFU ACY1 (11761880_at) / Fold change /veh ACY1 (11761880_at) / RFU 11764098_at / Fold change /veh 11764098_at / RFU SAMD14 (11745864_x_at) / Fold change /veh SAMD14 (11745864_x_at) / RFU NPB (11741838_a_at) / Fold change /veh NPB (11741838_a_at) / RFU TMPRSS6 (11731388_a_at) / Fold change /veh TMPRSS6 (11731388_a_at) / RFU KRTAP10-2 (11738614_at) / Fold change /veh KRTAP10-2 (11738614_at) / RFU ARHGAP8 /// PRR5-ARHGAP8 (11727945_x_at) / Fold change /veh ARHGAP8 /// PRR5-ARHGAP8 (11727945_x_at) / RFU KRTAP5-7 /// NADSYN1 (11734609_at) / Fold change /veh KRTAP5-7 /// NADSYN1 (11734609_at) / RFU RASL12 (11751679_a_at) / Fold change /veh RASL12 (11751679_a_at) / RFU CDKN2B (11736163_a_at) / Fold change /veh CDKN2B (11736163_a_at) / RFU PRF1 (11729649_at) / Fold change /veh PRF1 (11729649_at) / RFU, ZNF638 /// ZNF638-IT1 / Fold change vs veh, ZNF638 /// ZNF638-IT1 / RFU, PANK3 / Fold change vs veh, PANK3 / RFU, SH3YL1 / Fold change vs veh, SH3YL1 / RFU, ZEB2 / Fold change vs veh, ZEB2 / RFU, NRIP1 / Fold change vs veh, NRIP1 / RFU, PTTG1IP / Fold change vs veh, PTTG1IP / RFU, CAPN2 / Fold change vs veh, CAPN2 / RFU, MED14 / Fold change vs veh, MED14 / RFU, SNORA58 / Fold change vs veh, SNORA58 / RFU, C1orf63 / Fold change vs veh, C1orf63 / RFU, LRRFIP1 / Fold change vs veh, LRRFIP1 / RFU, NDUFAF7 / Fold change vs veh, NDUFAF7 / RFU, SLC12A2 / Fold change vs veh, SLC12A2 / RFU, IBTK / Fold change vs veh, IBTK / RFU, ESF1 / Fold change vs veh, ESF1 / Fold change vs veh, TMEM50B / RFU, TAOK1 / Fold change vs veh, TAOK1 / RFU, ACBD3 / Fold change vs veh, ACBD3 / RFU, TMA16 / Fold change vs veh, TMA16 / RFU, RWDD3 / Fold change vs veh, RWDD3 / RFU, BCAT1 / Fold change vs veh, BCAT1 / RFU, EDEM3 / Fold change vs veh, EDEM3 / RFU, TMEM33 / Fold change vs veh, TMEM33 / RFU, WDR75 / Fold change vs veh, WDR75 / RFU, AHCTF1 / Fold change vs veh, AHCTF1 / RFU, TFRC / Fold change vs veh, TFRC / RFU, ZDHHC17 / Fold change vs veh, ZDHHC17 / RFU, NOM1 / Fold change vs veh, NOM1 / RFU, ARL8B / Fold change vs veh, ARL8B / RFU, ZBTB11 / Fold change vs veh, ZBTB11 / RFU, TAMM41 / Fold change vs veh, TAMM41 / RFU, KIAA1704 /// LOC100996395 / Fold change vs veh, KIAA1704 /// LOC100996395 / RFU, ING1 / Fold change vs veh, ING1 / RFU, TRMT61B / Fold change vs veh, TRMT61B / RFU, FUBP3 / Fold change vs veh, FUBP3 / RFU, TP53 / Fold change vs veh, TP53 / RFU, TNKS2 / Fold change vs veh, TNKS2 / RFU, ZFP14 / Fold change vs veh, ZFP14 / RFU, ACTR2 / Fold change vs veh, ACTR2 / RFU, PPP3R1 / Fold change vs veh, PPP3R1 / RFU, PIK3R1 / Fold change vs veh, PIK3R1 / RFU, HNRNPA1 / Fold change vs veh, HNRNPA1 / RFU, RNF170 / Fold change vs veh, RNF170 / RFU, ZNF28 / Fold change vs veh, ZNF28 / RFU, RNGTT / Fold change vs veh, RNGTT / RFU, OGT / Fold change vs veh, OGT / RFU, BRD1 / Fold change vs veh, BRD1 / RFU, MARS / Fold change vs veh, MARS / RFU, ZNF655 / Fold change vs veh, ZNF655 / RFU, FAHD1 / Fold change vs veh, FAHD1 / RFU, BDP1 / Fold change vs veh, BDP1 / RFU, LRRCC1 / Fold change vs veh, LRRCC1 / RFU, ARID1A / Fold change vs veh, ARID1A / RFU, ZNF146 / Fold change vs veh, ZNF146 / RFU, ZNF330 / Fold change vs veh, ZNF330 / RFU, GPN3 / Fold change vs veh, GPN3 / RFU, C9orf123 / Fold change vs veh, C9orf123 / RFU, N4BP2L2 / Fold change vs veh, N4BP2L2 / RFU, ARFIP1 / Fold change vs veh, ARFIP1 / RFU, FAM179B / Fold change vs veh, FAM179B / RFU, BCL10 / Fold change vs veh, BCL10 / RFU, UHRF1BP1L / Fold change vs veh, UHRF1BP1L / RFU, BET1 / Fold change vs veh, BET1 / RFU, CNOT2 / Fold change vs veh, CNOT2 / RFU, ZNF268 / Fold change vs veh, ZNF268 / Fold change vs veh, ZNF507 / RFU, DGCR2 / Fold change vs veh, DGCR2 / RFU, WDSUB1 / Fold change vs veh, WDSUB1 / Fold change vs veh, HSP90B1 /// MIR3652 / RFU, ADSS / Fold change vs veh, ADSS / RFU, GK / Fold change vs veh, GK / RFU, ZNF148 / Fold change vs veh, ZNF148 / RFU, TAF9 / Fold change vs veh, TAF9 / RFU, SLC1A5 / Fold change vs veh, SLC1A5 / RFU, SLMO2 / Fold change vs veh, SLMO2 / RFU, ABCC4 / Fold change vs veh, ABCC4 / RFU, LOC101060439 /// RAP1B / Fold change vs veh, LOC101060439 /// RAP1B / RFU, RFX7 / Fold change vs veh, RFX7 / RFU, GTPBP10 / Fold change vs veh, GTPBP10 / RFU, CNEP1R1 / Fold change vs veh, CNEP1R1 / RFU, BIVM-ERCC5 /// ERCC5 / Fold change vs veh, BIVM-ERCC5 /// ERCC5 / RFU, ILF3 / Fold change vs veh, ILF3 / RFU 11762660_at / Fold change /veh 11762660_at / RFU VCAN (11757783_s_at) / Fold change /veh VCAN (11757783_s_at) / RFU DDX43 (11728927_at) / Fold change /veh DDX43 (11728927_at) / RFU KRT8 (11758188_x_at) / Fold change /veh KRT8 (11758188_x_at) / RFU NKD1 (11759106_at) / Fold change /veh NKD1 (11759106_at) / RFU SRD5A1 (11742802_a_at) / Fold change /veh SRD5A1 (11742802_a_at) / RFU TPSAB1 /// TPSB2 (11721975_s_at) / Fold change /veh TPSAB1 /// TPSB2 (11721975_s_at) / RFU GSTM3 (11746129_a_at) / Fold change /veh GSTM3 (11746129_a_at) / RFU IL23R (11737362_x_at) / Fold change /veh IL23R (11737362_x_at) / RFU TMEM51 (11727254_a_at) / Fold change /veh TMEM51 (11727254_a_at) / RFU PIWIL2 (11732686_x_at) / Fold change /veh PIWIL2 (11732686_x_at) / RFU ORM1 (11744905_x_at) / Fold change /veh ORM1 (11744905_x_at) / RFU CCDC152 (11743942_at) / Fold change /veh CCDC152 (11743942_at) / RFU ECM1 (11717891_a_at) / Fold change /veh ECM1 (11717891_a_at) / RFU IL23R (11748794_a_at) / Fold change /veh IL23R (11748794_a_at) / RFU TNFAIP8L3 (11732012_x_at) / Fold change /veh TNFAIP8L3 (11732012_x_at) / RFU MBOAT4 (11741988_at) / Fold change /veh MBOAT4 (11741988_at) / RFU 11764193_at / Fold change /veh 11764193_at / RFU TMEM53 (11763286_at) / Fold change /veh TMEM53 (11763286_at) / RFU MAGEB2 (11727129_at) / Fold change /veh MAGEB2 (11727129_at) / RFU TMEM200A (11744735_a_at) / Fold change /veh TMEM200A (11744735_a_at) / RFU CCDC152 (11751479_a_at) / Fold change /veh CCDC152 (11751479_a_at) / RFU FAM211A (11726209_a_at) / Fold change /veh FAM211A (11726209_a_at) / RFU RGS16 (11746705_a_at) / Fold change /veh RGS16 (11746705_a_at) / RFU VCAN (11755009_s_at) / Fold change /veh VCAN (11755009_s_at) / RFU RHOB (11743442_s_at) / Fold change /veh RHOB (11743442_s_at) / RFU RGS16 (11720943_a_at) / Fold change /veh RGS16 (11720943_a_at) / RFU RGS16 (11720944_at) / Fold change /veh RGS16 (11720944_at) / RFU, VPS4B / Fold change vs veh, VPS4B / RFU, CREB1 / Fold change vs veh, CREB1 / RFU, DNAJC13 / Fold change vs veh, DNAJC13 / RFU, GNAQ / Fold change vs veh, GNAQ / RFU, CDK5R1 / Fold change vs veh, CDK5R1 / RFU, ZRANB3 / Fold change vs veh, ZRANB3 / RFU, CUL4A / Fold change vs veh, CUL4A / RFU, CCNY / Fold change vs veh, CCNY / RFU, UFL1 / Fold change vs veh, UFL1 / RFU, COG3 / Fold change vs veh, COG3 / RFU, DIAPH2 / Fold change vs veh, DIAPH2 / RFU, SKA2 / Fold change vs veh, SKA2 / RFU, AFF3 / Fold change vs veh, AFF3 / RFU, LMF1 / Fold change vs veh, LMF1 / RFU, IPO11 / Fold change vs veh, IPO11 / RFU, DFFB / Fold change vs veh, DFFB / RFU, FOXP1 / Fold change vs veh, FOXP1 / RFU, CARD8 / Fold change vs veh, CARD8 / RFU, STRN3 / Fold change vs veh, STRN3 / RFU, ADK / Fold change vs veh, ADK / RFU, RASSF2 / Fold change vs veh, RASSF2 / RFU, WIPF1 / Fold change vs veh, WIPF1 / RFU, LARP1B / Fold change vs veh, LARP1B / RFU, RASA1 / Fold change vs veh, RASA1 / RFU, RB1 / Fold change vs veh, RB1 / RFU, PPFIA1 / Fold change vs veh, PPFIA1 / RFU, MAT2A / Fold change vs veh, MAT2A / RFU, CCT5 / Fold change vs veh, CCT5 / RFU, WDR92 / Fold change vs veh, WDR92 / RFU, CUX1 / Fold change vs veh, CUX1 / RFU, TTC7A / Fold change vs veh, TTC7A / RFU, TMEM135 / Fold change vs veh, TMEM135 / RFU, DEPTOR / Fold change vs veh, DEPTOR / RFU, CPM / Fold change vs veh, CPM / RFU, DNAJB6 / Fold change vs veh, DNAJB6 / RFU, CACNA2D3 / Fold change vs veh, CACNA2D3 / RFU, DTX4 / Fold change vs veh, DTX4 / RFU, TFCP2 / Fold change vs veh, TFCP2 / RFU, GMCL1 /// GMCL1P1 / Fold change vs veh, GMCL1 /// GMCL1P1 / RFU, AEBP2 / Fold change vs veh, AEBP2 / RFU, SNHG1 /// SNORD22 /// SNORD25 /// SNORD26 /// SNORD27 /// SNORD28 /// SNORD29 /// SNORD31 / Fold change vs veh, SNHG1 /// SNORD22 /// SNORD25 /// SNORD26 /// SNORD27 /// SNORD28 /// SNORD29 /// SNORD31 / Fold change (Aza/veh), C12orf56 (ProbeSet 11735607_a_at) / Fold change (ACY-1035/veh), C12orf56 (ProbeSet 11735607_a_at) / Fold change (Aza/veh), FGFR1OP (ProbeSet 11751329_s_at) / Fold change (ACY-1035/veh), FGFR1OP (ProbeSet 11751329_s_at) / Fold change (Aza/veh), VPS36 (ProbeSet 11739960_a_at) / Fold change (ACY-1035/veh), VPS36 (ProbeSet 11739960_a_at) / RFU SYPL1 (11715823_x_at) / Fold change /veh SYPL1 (11715823_x_at) / RFU IGFBP7 (11715501_s_at) / Fold change /veh IGFBP7 (11715501_s_at) / RFU REEP3 (11722064_at) / Fold change /veh REEP3 (11722064_at) / RFU IGLL1 (11728026_x_at) / Fold change /veh IGLL1 (11728026_x_at): dose or concentration left out as unconfirmed", "details": "ProbeSet 11726661_s_at; LIST B", "data": [{"smiles": "Nc1ccc(-c2cccs2)cc1NC(=O)c1ccc2c(c1)cc(C1CC1)n2CCN1CCOCC1", "note": "[ACY-1035]", "values": [{"measurement": "Fold change vs veh, GPN3", "value": 0.89}]}]}
